This note sets out measurements from US10494380B2, “Nitrogen-containing tricyclic derivatives having HIV replication inhibitory activity” (priority 2015, dated 2019).

In series [1] the target is CYP3A4 (Homo sapiens (Human), UniProt P08684). Briefly: CYP3A4 (MDZ) MBI test (Test Example 6). As to conditions: pooled human liver microsomes, midazolam 1-hydroxylation, preincubation 0 or 30 min. On the technique in general: Liver microsomes are a subcellular fraction often used to study metabolism.
The target of series [2] is CYP2C9 (Homo sapiens (Human), UniProt P11712). Description: CYP inhibition assay, tolbutamide methyl-hydroxylation (Test Example 4). As to conditions: pooled human hepatic microsome, 100 μmol/L tolbutamide, 15 minutes, 37° C. It counts as in vitro ADME. The procedure, abridged:
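Pooled human liver microsomes (0.2 mg protein/mL) with 100 µmol/L tolbutamide in 50 mmol/L HEPES, test compound at 1, 5, 10, 20 µmol/L; NADPH-started, 15 min at 37 °C. Hydroxytolbutamide quantified by LC/MS/MS to assess inhibition of metabolite formation.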

Series [3] relates to sheep red blood cells (RBC). Description: Photohemolysis test (Test Example 13). It counts as cell-based. As to conditions: 0.0008 to 0.1 w/v %, 10 J/cm2 UV-irradiation (290-400 nm). Summed up:
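Sheep RBC suspension (2.5 v/v %) with compound at 0.0008–0.1 w/v % exposed to 10 J/cm2 UV-A/UV-B (290–400 nm), then centrifuged. Supernatant absorbance at 540 nm gave photohemolysis index (PI) and at 630 nm met-Hb formation. Negative if PI<10% and 630 nm change <0.05; otherwise positive.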

The subject of series [4] is HIV (HTLV-IIIB strain). Briefly: HIV replication inhibition assay (Test Example 1; MT-4 cells, MTT). It counts as cell-based. The following applies: Human immunodeficiency virus 1, MT4, 96 h, HIV (HTLV-IIIB strain), MT-4 cells, MTT, four days. The procedure, abridged:
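MT-4 cells (2.5×10^4/well) were infected with HIV HTLV-IIIB (60 pfu) in the presence of compound and cultured 4 days at 37 °C. Cell viability was read by MTT reduction (OD 560/690 nm). EC50 and EC90 are the concentrations inhibiting virus-induced cytotoxicity by 50% and 90%.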

Series [5] concerns T125A mutant virus (HIV-1 NL-432 recombinant molecular clone, IN gene). Description: HIV replication inhibition assay against integrase 124/125 mutant virus (Test Example 2). In kind it is cell-based. As to conditions: Human immunodeficiency virus 1, MT4, read-out: EC50 against T125A mutant virus, T125A mutant virus (HIV-1 NL-432 IN gene), MT-4 cells, MTT. Summed up: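 MT-4 cells (2.5×10^4 per well) infected with 60 pfu of 293T-derived HIV-1 NL-432 clone carrying integrase 124/125 point mutations, in presence of compound, cultured 4 days at 37 °C. Viability by MTT formazan at 560/690 nm; EC50 = concentration inhibiting 50% of virus-induced cytotoxicity.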

Series [6] has as its system HIV. It counts as cell-based. The following applies: EC50 in the presence of human serum (25%) versus without human serum, MT-4 cells. The procedure, abridged:
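Compound is preincubated 1 h at room temperature with human serum, or with medium alone as the serum-free control. MT-4 cells infected with HIV (1 h, 37° C) are added and cultured 4 days. EC50 is determined with and without serum; their ratio gives the potency shift.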

CYP2C9, sequence (P11712 whole entry): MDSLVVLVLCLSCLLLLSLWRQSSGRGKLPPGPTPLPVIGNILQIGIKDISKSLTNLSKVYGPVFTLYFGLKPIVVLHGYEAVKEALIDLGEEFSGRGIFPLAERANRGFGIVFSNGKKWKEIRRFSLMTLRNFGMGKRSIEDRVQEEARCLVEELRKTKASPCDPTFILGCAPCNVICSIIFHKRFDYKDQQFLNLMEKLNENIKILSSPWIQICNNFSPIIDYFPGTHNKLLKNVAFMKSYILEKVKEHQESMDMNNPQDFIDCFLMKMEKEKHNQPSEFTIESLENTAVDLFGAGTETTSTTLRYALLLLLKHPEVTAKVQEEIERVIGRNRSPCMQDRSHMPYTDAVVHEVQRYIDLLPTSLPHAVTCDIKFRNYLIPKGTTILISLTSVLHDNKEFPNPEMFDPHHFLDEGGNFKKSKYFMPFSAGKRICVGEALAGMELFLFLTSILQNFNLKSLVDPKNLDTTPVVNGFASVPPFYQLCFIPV
CYP3A4, sequence (P08684 whole entry): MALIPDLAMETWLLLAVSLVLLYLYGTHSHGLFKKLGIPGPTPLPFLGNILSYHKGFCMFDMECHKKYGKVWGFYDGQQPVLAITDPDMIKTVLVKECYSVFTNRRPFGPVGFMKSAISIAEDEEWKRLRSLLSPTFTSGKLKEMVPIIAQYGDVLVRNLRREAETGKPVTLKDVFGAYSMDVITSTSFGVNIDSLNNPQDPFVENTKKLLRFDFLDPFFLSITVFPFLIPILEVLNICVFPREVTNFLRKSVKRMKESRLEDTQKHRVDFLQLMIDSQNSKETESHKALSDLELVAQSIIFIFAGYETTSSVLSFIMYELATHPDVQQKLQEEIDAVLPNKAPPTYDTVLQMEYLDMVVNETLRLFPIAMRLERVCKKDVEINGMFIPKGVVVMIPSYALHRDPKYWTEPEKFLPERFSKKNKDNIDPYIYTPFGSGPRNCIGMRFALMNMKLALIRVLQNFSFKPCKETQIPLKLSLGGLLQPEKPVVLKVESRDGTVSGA

The term IC50 denotes the concentration needed to halve the response being measured. As usually defined, the EC50 is the midpoint of the concentration-response curve. A word on the EC90: it is the concentration needed for an effect of 90%. Turning to `Cc1c([C@H](OC(C)(C)C)C(=O)O)c(-c2ccc(Cl)cc2)c2cc(C)n3c2c1N(c1ncc(OCCCN(C)C)cn1)CC3` [Compound I-257], in series [1], the “CYP3A4 (MDZ) MBI, shifted IC” value is “(−) (When a shifted IC was 1.0 or less, this was defined as negative)”. Besides, the IC50 in series [2] was > 20000 nM. Moreover, the “Photohemolysis test, potential of phototoxicity (PI and met-Hb)” value in series [3] was “(−) (negative criteria (−), PI<10% and changes in absorbance at 630 nm<0.05, respectively)”. The concentration giving a half-maximal response (EC50) was found to be 7.4 nM in series [4] (read-out: EC50) and 28 nM in series [5]. Also, the 90% effect concentration (EC90) in series [4] (read-out: EC90) was 8.1 nM. In series [6], the Potency shift value is on record as 4.
